Assay results published in publication PMC12162873, “Modulating phosphatase DUSP22 with BML-260 ameliorates skeletal muscle wasting via Akt independent JNK-FOXO3a repression” (EMBO Molecular Medicine, 2025).
Values joined by “and” are separate entries in the source; they are usually repeats but may differ in a detail not shown here. Identical values can stand only once.

What was measured:
C2C12 myotubes = assay: Real-time qPCR of gene expression in C2C12 myotubes; assay type: cell-based, mouse; details: for atrogin-1 and MuRF-1 expression, qPCR: 10 μM Dex 24 h, 12.5 μM BML-260; for DUSP22 expression, qPCR, Average / MURF-1 expression, qPCR, Average / atrogin-1 (ATRO) expression, qPCR, Average: Vehicle average = 1, n = 5; for DUSP22 expression, qPCR / MURF-1 expression, qPCR / atrogin-1 (ATRO) expression, qPCR: Vehicle average = 1, replicates
Procedure: (§1) C2C12 murine skeletal muscle myoblasts were purchased from Koram Biotech Corp. (Seoul, Republic of Korea). Prior to experiments, mycoplasma contamination was eliminated using the MycoXpert Mycoplasma Removal Reagent (MYX-B, CAPRICORN) following the manufacturer’s protocol. To ensure complete removal, all cells were passaged three times after treatment before being used in subsequent experiments. No STR profiling was recently undertaken. Myoblasts were cultured in growth media (GM), containing Dulbecco’s modified Eagle’s medium (DMEM), 10% fetal bovine serum, and 1% penicillin and streptomycin (PenStrep). C2C12 myoblasts were differentiated into myotubes at more than 80% confluence by culture in differentiation media (DM), containing DMEM supplemented with 2% horse serum and PenStrep, for 96 h. To induce atrophy, the myotubes were treated with DM plus 10 μM Dex for 24 h. BML-260 and SP600125 were purchased from Santa Cruz Biotechnology, TX, USA (cat. no. sc-223822 and sc-200635).
The StepOnePlus Real Time PCR System (Applied Biosystems, UK) was used to measure the mRNA level of the genes of interest. An AccuPower RT PreMix (Bioneer, Republic of Korea) was used to synthesize the cDNA from total RNA. The real-time PCR (qPCR) was carried out according to the manufacturer’s instructions, and the previously published protocol (Lee et al, [2020]). Details of the primers used in this study are shown in Appendix Tables S1 and S2.
(§2) Gene knockdown was carried out following the manufacturer’s protocol using a 6-well culture plate format (Thermo Fischer Scientific, Waltham, USA). Lipofectamine 3000 was used for the transfection step (Thermo Fischer Scientific, Waltham, USA). siRNA transfection was performed on day 3 of myoblast differentiation into myotubes. C2C12 myotubes and primary human myotubes were transfected with 75 pmol siRNA duplex. Details of the siRNAs used in this study are shown in Appendix Table S3.

C2C12 murine myotubes = assay: Dex-induced C2C12 myotube atrophy: myotube diameter, fusion and differentiation indexes; assay type: cell-based, mouse; details: 10 μM Dex 24 h, 12.5 μM BML-260
Procedure: as §1
Fast myosin heavy chain 2 (MYH2) immunocytochemistry was used to visualize murine myotubes and measure myotube diameter, following the previously published protocol (Chen et al, [2016]). After mounting, fluorescence images were captured in 5 different regions using a DMI 3000 B microscope (Leica, Germany), and analyzed using the NIH imaging software Image J 64. 100 myotubes containing at least three nuclei were measured in each experimental group. Myotubes were primarily examined in the central area of each well, as opposed to randomly selected fields. The mid-point of the myotube was used to measure the diameter. For nuclear counts, we chose myotubes containing three or more nuclei. The observer was aware of the treatment conditions.
To assess myoblast fusion into multinucleate myotubes, nuclei number within fast myosin (MYH2)-positive cells were measured using the NIH imaging software Image J 64. The differentiation index was calculated as the percentage of nuclei in fast myosin (MYH2)-positive cells (nuclei in myotubes/total nuclei). Myotubes were classified as MYH-positive cells containing at least 4 nuclei. Myotubes were measured in groups of at least 100, with at least 7500 nuclei measured in each group.
as §2

C57BL/6J mice = assay: Dex treatment mouse model of skeletal muscle atrophy, BML-260 treatment; assay type: in vivo; details: for mean body weight: 15 mg/kg Dex, 5 mg/kg BML-260, IP daily
Procedure: The Dex model of muscle atrophy was based on the previously published protocol (Kim et al, [2022]). In brief, 12-week-old male C57BL/6J mice were treated as follows: 1) Vehicle (DMSO in PBS pH 7.4 with 5% Tween 80) alone, 2) 15 mg/kg Dex dissolved in vehicle, 3) 15 mg/kg Dex and 5 mg/kg BML-260 (n = 5 per group). Mice were treated daily by intraperitoneal (IP) injection for 14 d and then assessed for muscle condition. The 5 mg/kg in vivo dose was selected based on a previous study that carried out bilateral injection of BML-260 into the fat pads of male 8-week-old C57BL/6J mice (Feng et al, [2019]).
Grip strength was measured using the BIO-GS3 device (Bioseb, FL, USA). Mice were placed onto the grid with all four paws attached and gently pulled backwards to measure the grip strength until the grid was released. The maximum grip value, used to represent muscle force, was calculated using 3 trials with an interval of 30 s.
Muscle fatigue was measured the previously described protocol (Chiu et al, [2018]), with two different models using the Rotarod. One was the constant model and the other was the accelerating model that is inherent in the rotarod device. In brief, the mice were accommodated to training before the commencement of the fatigue task using an accelerating rotarod (Ugo Basile, Italy). The mice were trained at a constant speed of 13 rpm for 15 min. After a recovery period of 15 min, the mice were placed on the rotarod adjusted to accelerate from 13 to 25 rpm in 3 min for 15 min. 24 h later, the muscle fatigue test was carried out with speeds ramping from 13 to 25 rpm in 3 min, and maintained at 25 rpm for a 30 min interval. Latency to fall off the rotarod was measured for each mouse. A fatigued mouse was classified as falling off 4 times within a 1 min period, which also terminated the test.
Mice were anesthetized using ketamine (22 mg/kg; Yuhan, Republic of Korea) and xylazine (10 mg/kg; Bayer, Republic of Korea) in saline by IP injection. The quadriceps, gastrocnemius, soleus and TA muscles were then dissected and weighed. For histological analysis, the muscles were fixed by overnight incubation with 4% paraformaldehyde in PBS pH 7.4 at 4 °C. Paraffin sectioning and H&E staining were provided by the Animal Housing Facility, Gwangju Institute of Science and Technology, Republic of Korea (5 µm muscle sections using a Thermo Scientific HistoStar (Thermofisher). H&E staining was carried out with a kit (Merck, Germany)). For immunohistochemistry, TA muscle sections were permeabilized for 15 min (PBS with 0.5% Triton X-100), blocked for 1 h (5% BSA) and incubated with the primary antibody overnight at 4 °C (a list of primary and secondary antibodies used in this study are provided in Appendix Tables S4 and S5, respectively). After washing with PBS 3 times for 5 min, the sections were incubated with the secondary antibody at RT for 1 h. The nuclei were counterstained with DAPI in ProLong™ Gold Antifade Mountant (Invitrogen, P36935). Digital images were acquired with Leica DM 2500 (Leica Microsystems). Cross sectional area (CSA) and fiber size distribution was measured using the NIH imaging software Image J 64. To CSA and size distribution of different fiber types was calculated in 4 muscle section as follows: type 2 A: 30–40 fibers measured; type 2B: at least 100 fibers measured; type 2X: 30–40 fibers measured.

[1] = system: VH1-related (VHR) phosphatase; set-up: method as in Cutshall et al, 2005; details: ref Cutshall et al, 2005; cited from earlier work
[2] = C2C12 myotubes treated with Dex
[3] = dexamethasone-treated C2C12 myotubes
[4] = dexamethasone-treated C2C12 myotubes, listed as BML
[5] = 15 mg/kg Dex and 5 mg/kg BML-260, IP daily 14 d

In the case of C[C@@H]1C[C@H]2[C@@H]3CCC4=CC(=O)C=C[C@]4(C)[C@@]3(F)[C@@H](O)C[C@]2(C)[C@@]1(O)C(=O)CO [Dex, dexamethasone], the “atrogin-1 and MuRF-1 expression, qPCR” value (C2C12 myotubes) is reported as “upregulated”, the “DUSP22 expression in myotubes undergoing Dex-induced atrophy, RNA Seq and qPCR” value (C2C12 myotubes; C2C12 myotubes) is reported as “upregulated” and the “DUSP22 expression, qPCR, Average” value (C2C12 myotubes; [2]) is reported as 1.867. The “DUSP22 expression, qPCR” value (C2C12 myotubes; [2]) was 1.751 and 1.762 and 2.076 and 2.045 and 1.699, the “DUSP22 expression, qPCR, Average” value (C2C12 myotubes; [3]) was 1.628 and the “MURF-1 expression, qPCR, Average” value (C2C12 myotubes; [3]) was 2.64. For the same molecule, the “atrogin-1 (ATRO) expression, qPCR, Average” value (C2C12 myotubes; [3]) was 4.291, the “DUSP22 expression, qPCR” value (C2C12 myotubes; [3]) was 2.068 and 1.836 and 1.276 and 1.511 and 1.449 and the “MURF-1 expression, qPCR” value (C2C12 myotubes; [3]) was 3.398 and 2.859 and 1.96 and 2.287 and 2.697. For the same molecule, the “atrogin-1 (ATRO) expression, qPCR” value (C2C12 myotubes; [3]) was 4.546 and 3.961 and 4.048 and 4.199 and 4.699, the “myotube atrophy (myotube diameter)” value (C2C12 murine myotubes) was “underwent atrophy” and the mean body weight (C57BL/6J mice) was “significantly reduced”. For the same molecule, the “DUSP22 expression, qPCR” value (C57BL/6J mice; TA muscle of C57BL/6 mice treated with Dex, Vehicle average = 1, individual animals) was 2.47 and 1.789 and 1.328 and 1.032.

In the case of O=C(O)c1ccc(N2C(=O)C(=Cc3ccccc3)SC2=S)cc1 (stereo in doubt) [BML-260], the “atrogin-1 and MuRF-1 expression, qPCR” value (C2C12 myotubes) is reported as “downregulated”, the “additional effect on Dex-induced atrogene expression in the presence of DUSP22 gene knockdown” value (C2C12 myotubes; Dex-treated C2C12 myotubes) is reported as “no significant additional effect” and the “DUSP22 expression, qPCR, Average” value (C2C12 myotubes; [3]) is reported as 1.419. For the same molecule, the “MURF-1 expression, qPCR, Average” value (C2C12 myotubes; [3]) was 2.125, the “atrogin-1 (ATRO) expression, qPCR, Average” value (C2C12 myotubes; [3]) was 2.99 and the “DUSP22 expression, qPCR” value (C2C12 myotubes; [4]) was 1.3832 and 1.906 and 1.483 and 1.176 and 1.145. The “MURF-1 expression, qPCR” value (C2C12 myotubes; [4]) was 2.278 and 2.851 and 2.228 and 1.487 and 1.782, the “atrogin-1 (ATRO) expression, qPCR” value (C2C12 myotubes; [4]) was 3.37 and 3.403 and 3.232 and 2.06 and 2.886 and the “myotube atrophy (myotube diameter)” value (C2C12 murine myotubes) was “prevented myotube atrophy”. The “myotube fusion and differentiation indexes” value (C2C12 murine myotubes) was “recovered”, the “proportion of larger-sized myotubes” value (C2C12 murine myotubes) was “maintained the proportion of larger-sized myotubes” and the TA muscle mass (C57BL/6J mice; [5]) was “increased”. The grip strength (C57BL/6J mice; [5]) was “increased the mean grip strength value, but it did not achieve statistical significance”, the myofiber area distribution (C57BL/6J mice; [5]) was “shifted the myofiber area distribution towards larger sized fibers” and the “rotarod muscle performance, acceleration and constant models” value (C57BL/6J mice; [5]) was “significantly recovered muscle performance”. For the same molecule, the “upregulation of atrogin-1, MuRF-1 and DUSP22 in TA muscle, western blot” value (C57BL/6J mice; [5]) was “inhibited”, the “myofiber CSA” value (C57BL/6J mice; 15 mg/kg Dex and 5 mg/kg BML-260, IP daily 14 d, TA muscle per text) was “significantly increased” and the mean body weight (C57BL/6J mice) was “recovered”. The “inhibitory effect against VHR phosphatase” value [1] was “no inhibitory effect”.
